Experimental data reported in US12281363B2, “Methods for detecting antiviral-drug resistant virus” (Secretary of State for Health and Social Care, priority 2018, dated 2025).
Read-outs that look alike come from different tables or passages of the source.

Test system: HSV-1
Test: Plaque reduction assay, HSV-1 clinical isolates on Vero cells
Assay type: cell-based
Settings: Human alphaherpesvirus 1, Vero
Procedure, shortened: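 Susceptibility of HSV-1 isolates was read as percent plaque reduction versus no-drug control, counted on fixed, crystal-violet-stained sub-confluent Vero cells infected at 75 PFU/well beneath CMC. Intermediate resistance lies between cut-offs ACV <3/>40 μM, PCV <10/>40 μM, CDV <24/>30 μM, FOS <250/>400 μM.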

Measured: IC50

Nc1nc2c(ncn2CCC(CO)CO)c(=O)[nH]1 [Penciclovir, penciclovir]
> 160 µM: 72 h, isolate HPG053, HSV-1 pol L802R + A834S (2405T>G, 2500G>T), also TK R176W, read-out: Drug susceptibility (IC50 value) | isolate HPG002, HSV-1 pol E992K (2974G>A), also TK insert (G) nt 430-436, pol A1169T, read-out: Drug susceptibility (IC50 value) | isolate HPG008, HSV-1 TK V204G (611T>G), read-out: Drug susceptibility (IC50 value) | isolate HPG019, HSV-1 pol K750T (2249A>C), also TK deletion (G) nt 430-436, pol A1169T, read-out: Drug susceptibility (IC50 value) | isolate HPG021, HSV-1 pol R681Q (2042G>A), also TK deletion (G) nt 430-436, read-out: Drug susceptibility (IC50 value) | isolate HPG021, HSV-1 pol T839A (2515A>G), also TK deletion (G) nt 430-436, read-out: Drug susceptibility (IC50 value) | isolate HPG027, HSV-1 TK V204G (611T>G), also pol S914L, A1169AT, read-out: Drug susceptibility (IC50 value) | isolate HPG027, HSV-1 pol S914L (2741C>T), also TK V204G, pol A1169T, read-out: Drug susceptibility (IC50 value) | isolate HPG029, HSV-1 TK Y172S (515A>C), read-out: Drug susceptibility (IC50 value) | isolate HPG032, HSV-1 TK 183* (437_438insA), read-out: Drug susceptibility (IC50 value)
35 µM: isolate HPG026, HSV-1 pol E850Q (2548G>C), also TK R216C, pol A1169T, read-out: Drug susceptibility (IC50 value)
105 µM: isolate HPG013, HSV-1 TK M121I (363G>A), read-out: Drug susceptibility (IC50 value) | isolate HPG013, HSV-1 pol D83A (248A>C), also TK M121I, pol A1169T, read-out: Drug susceptibility (IC50 value)
5.66 µM: isolate HPG014, HSV-1 pol A1115T (3343G>A), read-out: Drug susceptibility (IC50 value) | isolate HPG014, HSV-1 pol R993C (2977C>T), read-out: Drug susceptibility (IC50 value) | isolate HPG014, HSV-1 pol T54A (160A>G), read-out: Drug susceptibility (IC50 value)
8.48 µM: isolate HPG015, HSV-1 pol 966stop or F965_I966insF (2892_2893insT to 2895_2896insT), read-out: Drug susceptibility (IC50 value)
108 µM: isolate HPG011, HSV-1 TK Q125* (373C>T), read-out: Drug susceptibility (IC50 value)
87.1 µM: isolate HPG010, HSV-1 TK Q125* (373C>T), read-out: Drug susceptibility (IC50 value)
2.48 µM: isolate HPG020, HSV-1 pol S911N (2732G>A), also pol A1169T, read-out: Drug susceptibility (IC50 value)
5.19 µM: isolate HPG005, HSV-1 TK A37V (110C>T), read-out: Drug susceptibility (IC50 value)
< 10 µM: isolate HPG005, HSV-1 TK A37V (110C>T), read-out: Drug susceptibility Penciclovir (PCV) | isolate HPG009, HSV-1 pol E992K (2974G>A), also pol A1169T, read-out: Drug susceptibility Penciclovir (PCV) | isolate HPG014, HSV-1 pol A1115T (3343G>A), read-out: Drug susceptibility Penciclovir (PCV) | isolate HPG014, HSV-1 pol R993C (2977C>T), read-out: Drug susceptibility Penciclovir (PCV) | isolate HPG014, HSV-1 pol T54A (160A>G), read-out: Drug susceptibility Penciclovir (PCV) | isolate HPG015, HSV-1 pol 966stop or F965_I966insF (2892_2893insT to 2895_2896insT), read-out: Drug susceptibility Penciclovir (PCV) | isolate HPG020, HSV-1 pol S911N (2732G>A), also pol A1169T, read-out: Drug susceptibility Penciclovir (PCV)
117 µM: isolate HPG018, HSV-1 TK frameshift (881delC to 885delC), read-out: Drug susceptibility (IC50 value) | isolate HPG018, HSV-1 pol P1199T (3595C>A), also TK deletion (C) nt 881-885, pol A1169T, read-out: Drug susceptibility (IC50 value)
156 µM: isolate HPG031, HSV-1 pol E1120A (3359A>C), also a TK resistance mutation (footnote e), read-out: Drug susceptibility (IC50 value) | isolate HPG031, HSV-1 pol G139R (415G>C or 415G>A), also a TK resistance mutation (footnote e), read-out: Drug susceptibility (IC50 value)
> 40 µM: isolate HPG002, HSV-1 pol E992K (2974G>A), also TK insert (G) nt 430-436, pol A1169T, read-out: Drug susceptibility Penciclovir (PCV) | isolate HPG003, HSV-1 TK Y172S (515A>C), read-out: Drug susceptibility Penciclovir (PCV) | isolate HPG008, HSV-1 TK V204G (611T>G), read-out: Drug susceptibility Penciclovir (PCV) | isolate HPG010, HSV-1 TK Q125* (373C>T), read-out: Drug susceptibility Penciclovir (PCV) | isolate HPG011, HSV-1 TK Q125* (373C>T), read-out: Drug susceptibility Penciclovir (PCV) | isolate HPG013, HSV-1 TK M121I (363G>A), read-out: Drug susceptibility Penciclovir (PCV) | isolate HPG013, HSV-1 pol D83A (248A>C), also TK M121I, pol A1169T, read-out: Drug susceptibility Penciclovir (PCV) | isolate HPG018, HSV-1 TK frameshift (881delC to 885delC), read-out: Drug susceptibility Penciclovir (PCV) | isolate HPG018, HSV-1 pol P1199T (3595C>A), also TK deletion (C) nt 881-885, pol A1169T, read-out: Drug susceptibility Penciclovir (PCV) | isolate HPG019, HSV-1 pol K750T (2249A>C), also TK deletion (G) nt 430-436, pol A1169T, read-out: Drug susceptibility Penciclovir (PCV) | isolate HPG021, HSV-1 pol R681Q (2042G>A), also TK deletion (G) nt 430-436, read-out: Drug susceptibility Penciclovir (PCV) | isolate HPG021, HSV-1 pol T839A (2515A>G), also TK deletion (G) nt 430-436, read-out: Drug susceptibility Penciclovir (PCV) | isolate HPG025, HSV-1 pol E850Q (2548G>C), also TK R216C, read-out: Drug susceptibility Penciclovir (PCV) | isolate HPG027, HSV-1 TK V204G (611T>G), also pol S914L, A1169AT, read-out: Drug susceptibility Penciclovir (PCV) | isolate HPG027, HSV-1 pol S914L (2741C>T), also TK V204G, pol A1169T, read-out: Drug susceptibility Penciclovir (PCV) | isolate HPG029, HSV-1 TK Y172S (515A>C), read-out: Drug susceptibility Penciclovir (PCV) | isolate HPG031, HSV-1 pol E1120A (3359A>C), also a TK resistance mutation (footnote e), read-out: Drug susceptibility Penciclovir (PCV) | isolate HPG031, HSV-1 pol G139R (415G>C or 415G>A), also a TK resistance mutation (footnote e), read-out: Drug susceptibility Penciclovir (PCV) | isolate HPG032, HSV-1 TK 183* (437_438insA), read-out: Drug susceptibility Penciclovir (PCV)
106 µM: isolate HPG003, HSV-1 TK Y172S (515A>C), read-out: Drug susceptibility (IC50 value)
10 to 40 µM: isolate HPG026, HSV-1 pol E850Q (2548G>C), also TK R216C, pol A1169T, read-out: Drug susceptibility Penciclovir (PCV)
4.05 µM: isolate HPG009, HSV-1 pol E992K (2974G>A), also pol A1169T, read-out: Drug susceptibility (IC50 value)
118 µM: isolate HPG025, HSV-1 pol E850Q (2548G>C), also TK R216C, read-out: Drug susceptibility (IC50 value)
